Source: patent US9708311B2, “Benzimidazole derivatives as EP4 antagonists” (BAYER PHARMA AKTIENGESELLSCHAFT, priority 2012, dated 2017)

Target: human EP4 receptor (Homo sapiens (Human), UniProt P35408)
Test: Test for antagonism of the human EP4 receptor signal (cAMP HTRF)
Type: cell-based
Conditions: cells expressing hEP4, PGE2 at EC80 (0.4 nM), cAMP TR-FRET; read-out: Antagonism hEP4 IC50
How it was run: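 Antagonism of PGE2-stimulated cAMP formation in hEP4-R cells with IBMX present. After lysis, cAMP measured by competitive TR-FRET (Eu cryptate anti-cAMP antibody vs cAMP-d2), 20 min at room temperature. Read-out is the 665/620 nm emission ratio; antagonism appears as restored FRET signal.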

Sequence of human EP4 receptor (P35408 whole entry): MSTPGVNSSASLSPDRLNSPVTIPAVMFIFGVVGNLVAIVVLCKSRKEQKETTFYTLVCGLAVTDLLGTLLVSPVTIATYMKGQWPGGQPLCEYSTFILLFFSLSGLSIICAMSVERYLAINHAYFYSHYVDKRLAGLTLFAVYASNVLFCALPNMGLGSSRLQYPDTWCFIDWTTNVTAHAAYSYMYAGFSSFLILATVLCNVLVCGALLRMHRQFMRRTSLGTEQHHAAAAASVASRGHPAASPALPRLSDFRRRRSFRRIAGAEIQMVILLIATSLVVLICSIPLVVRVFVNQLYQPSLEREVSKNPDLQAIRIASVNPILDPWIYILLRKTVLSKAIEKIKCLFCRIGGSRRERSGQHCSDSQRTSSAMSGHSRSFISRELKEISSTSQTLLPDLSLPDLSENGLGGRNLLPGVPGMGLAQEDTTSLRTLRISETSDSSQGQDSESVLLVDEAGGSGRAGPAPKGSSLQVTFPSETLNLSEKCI

Q: For `CCOC(=O)c1ccc2c(c1)nc(-c1ccc3c(c1)c1ccccc1n3CC)n2C(C)C` [Example 92, Ethyl 2-(9-ethyl-9H-carbazol-3-yl)-1-isopropyl-1H-benzimidazole-5-carboxylate], which IC50 is on record?
A: 8000 nM

Q: With `CCn1c2ccccc2c2cc(-c3nc4cc(C(=O)O)ccc4n3C(C)C)ccc21` [Example 93, 2-(9-Ethyl-9H-carbazol-3-yl)-1-isopropyl-1H-benzimidazole-5-carboxylic acid] as the compound, how does the IC50 read?
A: 733 nM

Q: Which IC50 does the source give for `CCn1c2ccccc2c2cc(-c3nc4cc(C(=O)O)ccc4n3C)ccc21` [Example 94, 2-(9-Ethyl-9H-carbazol-3-y1)-1-methyl-1 H-benzimidazole-5-carboxylic acid] here?
A: 195 nM

Q: How did the IC50 turn out when `CCn1c(-c2ccc3c(c2)c2ccccc2n3CC)nc2cc(C(=O)OC)ccc21` [Example 95, Methyl 1-ethyl-2-(9-ethyl-9H-carbazol-3-yl)-1H-benzimidazole-5-carboxylate] was run?
A: 1030 nM

Q: How did the IC50 turn out when `C=CCn1c2ccccc2c2cc(-c3nc4cc(C(=O)O)ccc4n3CCOC)ccc21` [Example 96, 2-(9-Allyl-9H-carbazol-3-yl)-1-(2-methoxyethyl)-1H-benzimidazole-5-carboxylic acid] was run?
A: 16.5 nM

Q: Which IC50 does the source give for `CCOC(=O)c1ccc2c(c1)nc(-c1ccc3c(c1)c1ccccc1n3CCOC)n2CCOC` [Example 97, Ethyl 1-(2-methoxyethyl)-2-[9-(2-methoxyethyl)-9H-carbazol-3-yl]-1H-benzimidazole-5-carboxylate] here?
A: 412 nM

Q: `COCCn1c(-c2ccc3c(c2)c2ccccc2n3CCOC)nc2cc(C(=O)O)ccc21` [Example 98, 1-(2-Methoxyethyl)-2-[9-(2-methoxyethyl)-9H-carbazol-3-yl]-1H-benzimidazole-5-carboxylic acid] was tested. Which IC50 did it give?
A: 112 nM

Q: `CCOC(=O)c1ccc2c(c1)nc(-c1ccc3c(c1)c1ccccc1n3CC)n2CCCOC` [Example 99, Ethyl 2-(9-ethyl-9H-carbazol-3-yl)-1-(3-methoxypropyl)-1H-benzimidazole-5-carboxylate] was tested. Which IC50 did it give?
A: 1710 nM

Q: For `CCn1c2ccccc2c2cc(-c3nc4cc(C(=O)O)ccc4n3CCCOC)ccc21` [Example 100, 2-(9-Ethyl-9H-carbazol-3-yl)-1-(3-methoxypropyl)-1H-benzimidazole-5-carboxylic acid], which IC50 is on record?
A: 158 nM

Q: With `CCn1c2ccccc2c2cc(-c3nc4cc(C(C)(C)O)ccc4n3CCOC)ccc21` [Example 101, 2-[2-(9-Ethyl-9H-carbazol-3-yl)-1-(2-methoxyethyl)-1H-benzimidazol-5-yl]propan-2-ol] as the compound, how does the IC50 read?
A: 989 nM

Q: With `CCn1c2ccccc2c2cc(-c3nc4cc(C(=O)O)c(OC)cc4n3CC3CC3)ccc21` [Example 102, 1-(Cyclopropylmethyl)-2-(9-ethyl-9H-carbazol-3-yl)-6-methoxy-1H-benzimidazole-5-carboxylic acid] as the compound, how does the IC50 read?
A: 2830 nM

Q: How did the IC50 turn out when `CCn1c2ccccc2c2cc(-c3nc4cc(C(=O)O)c(OC)cc4n3CCOC)ccc21` [Example 103, 2-(9-Ethyl-9H-carbazol-3-yl)-6-methoxy-1-(2-methoxyethyl)-1H-benzimidazole-5-carboxylic acid] was run?
A: 3110 nM

Q: Which IC50 does the source give for `CCn1c2ccccc2c2cc(-c3nc4c(C)c(C(=O)O)ccc4n3CCOC)ccc21` [Example 105, 2-(9-Ethyl-9H-carbazol-3-yl)-1-(2-methoxyethyl)-4-methyl-1H-benzimidazole-5-carboxylic acid] here?
A: 64.3 nM

Q: With `CCn1c2ccccc2c2cc(-c3nc4cc(-c5n[nH]c(=O)o5)ccc4n3CCOC)ccc21` [Example 106, 5-[2-(9-Ethyl-9H-carbazol-3-yl)-1-(2-methoxyethyl)-1H-benzimidazol-5-yl]-1,3,4-oxadiazol-2(3H)-one] as the compound, how does the IC50 read?
A: 43.7 nM

Q: With `CCn1c2ccccc2c2cc(-c3nc4c(C)c(C(=O)O)ccc4n3CC3CC3)cnc21` [Example 107, 1-(Cyclopropylmethyl)-2-(9-ethyl-9H-pyrido[2,3-b]indol-3-yl)-4-methyl-1H-benzimidazole-5-carboxylic acid] as the compound, how does the IC50 read?
A: 433 nM

Q: With `CCn1c2ccc(-c3nc4cc(C(=O)O)ccc4n3CC3CC3)cc2c2ccncc21` [Example 108, 1-(Cyclopropylmethyl)-2-(9-ethyl-9H-beta-carbolin-6-yl)-1H-benzimidazole-5-carboxylic acid] as the compound, how does the IC50 read?
A: 119 nM

Q: For `CCn1c2ccncc2c2cc(-c3nc4cc(C(=O)O)ccc4n3CC3CC3)ccc21` [Example 109, 1-(Cyclopropylmethyl)-2-(5-ethyl-5H-pyrido[4,3-b]indol-8-yl)-1H-benzimidazole-5-carboxylic acid], which IC50 is on record?
A: 178 nM

Q: Which IC50 does the source give for `CCn1c2ccccc2c2cc(-c3nc4cc(C(=O)O)c(C)cc4n3CC3CC3)ccc21` [Example 110, 1-(Cyclopropylmethyl)-2-(9-ethyl-9H-carbazol-3-yl)-6-methyl-1H-benzimidazole-5-carboxylic acid] here?
A: 1180 nM

Q: `CCn1c2ccccc2c2cc(-c3nc4cc(C(=O)O)c(C)cc4n3CCOC)ccc21` [Example 111, 2-(9-Ethyl-9H-carbazol-3-yl)-1-(2-methoxyethyl)-6-methyl-1H-benzimidazole-5-carboxylic acid] was tested. Which IC50 did it give?
A: 612 nM

Q: How did the IC50 turn out when `CCn1c2ccccc2c2cc(-c3nc4cc(C(=O)O)c(F)cc4n3CC3CC3)ccc21` [Example 112, 1-(Cyclopropylmethyl)-2-(9-ethyl-9H-carbazol-3-yl)-6-fluoro-1H-benzimidazole-5-carboxylic acid] was run?
A: 34.6 nM

Q: With `CCn1c2ccccc2c2cc(-c3nc4cc(C(=O)O)c(F)cc4n3CCOC)ccc21` [Example 113, 2-(9-Ethyl-9H-carbazol-3-yl)-6-fluoro-1-(2-methoxyethyl)-1H-benzimidazole-5-carboxylic acid] as the compound, how does the IC50 read?
A: 59.5 nM

Q: How did the IC50 turn out when `CCn1c2ccccc2c2cc(-c3nc4c(F)c(C(=O)O)ccc4n3CCOC)ccc21` [Example 114, 2-(9-Ethyl-9H-carbazol-3-yl)-4-fluoro-1-(2-methoxyethyl)-1H-benzimidazole-5-carboxylic acid] was run?
A: 6.42 nM

Q: `CCn1c2ccccc2c2cc(-c3nc4c(F)c(C(=O)O)ccc4n3CC3CC3)ccc21` [Example 115, 1-(Cyclopropylmethyl)-2-(9-ethyl-9H-carbazol-3-yl)-4-fluoro-1H-benzimidazole-5-carboxylic acid] was tested. Which IC50 did it give?
A: 11.6 nM

Q: For `CCn1c2ccc(-c3nc4cc(C(=O)O)ccc4n3CC3CC3)cc2c2cccnc21` [Example 116, 1-(Cyclopropylmethyl)-2-(9-ethyl-9H-pyrido[2,3-b]indol-6-yl)-1H-benzimidazole-5-carboxylic acid], which IC50 is on record?
A: 22.2 nM

Q: Which IC50 does the source give for `CCn1c2ccccc2c2cc(-c3nc4cc(C(=O)O)ccc4n3CCC3CC3)ccc21` [Example 117, 1-(2-Cyclopropylethyl)-2-(9-ethyl-9H-carbazol-3-yl)-1H-benzimidazole-5-carboxylic acid] here?
A: 22.1 nM

Q: For `CCCn1c2ccccc2c2cc(-c3nc4cc(C(=O)O)ccc4n3CCOC)ccc21` [Example 118, 1-(2-Methoxyethyl)-2-(9-propyl-9H-carbazol-3-yl)-1H-benzimidazole-5-carboxylic acid], which IC50 is on record?
A: 36.2 nM

Q: `C#CCn1c2ccccc2c2cc(-c3nc4cc(C(=O)O)ccc4n3CCOC)ccc21` [Example 119, 1-(2-Methoxyethyl)-2-[9-(prop-2-yn-1-yl)-9H-carbazol-3-yl]-1H-benzimidazole-5-carboxylic acid] was tested. Which IC50 did it give?
A: 43.7 nM

Q: With `CCCn1c2ccccc2c2cc(-c3nc4cc(C(=O)O)ccc4n3CC3CC3)ccc21` [Example 120, 1-(Cyclopropylmethyl)-2-(9-propyl-9H-carbazol-3-yl)-1H-benzimidazole-5-carboxylic acid] as the compound, how does the IC50 read?
A: 63 nM
